#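 How tested: cells in 96-well plates exposed to compound for 48 hours at five concentrations. GI50 is the concentration that inhibits growth by half.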 Calls of active or inactive are those of the source. Cut-off read from the data, not from the text of the source: active = GI50 up to about 1.1 µM and inactive = higher.
# How the values were obtained:
# Assay in all cases: inhibition of tumour cell growth, NCI panel, 48 h
# [1] = tested on: 786-0
# [2] = tested on: A498
# [3] = tested on: A549
# [4] = tested on: ACHN
# [5] = tested on: BT-549
# [6] = tested on: CAKI-1
# [7] = tested on: CCRF-CEM
# [8] = tested on: COLO 205
# [9] = tested on: DU-145
# [10] = tested on: EKVX
# [11] = tested on: HCC 2998
# [12] = tested on: HCT-116
# [13] = tested on: HCT-15
# [14] = tested on: HL-60
# [15] = tested on: HOP-92
# [16] = tested on: HT-29
# [17] = tested on: Hs-578T
# [18] = tested on: IGROV-1
# [19] = tested on: K562
# [20] = tested on: KM12
# [21] = tested on: LOX IMVI
# [22] = tested on: M14
# [23] = tested on: MCF7
# [24] = tested on: MDA-MB-231
# [25] = tested on: MDA-MB-435
# [26] = tested on: MDA-N
# [27] = tested on: MOLT-4
# [28] = tested on: Malme-3M
# [29] = tested on: NCI-H226
# [30] = tested on: NCI-H23
# [31] = tested on: NCI-H460
# [32] = tested on: NCI-H522
# [33] = tested on: NCI/ADR-RES
# [34] = tested on: OVCAR-4
# [35] = tested on: OVCAR-5
# [36] = tested on: OVCAR-8
# [37] = tested on: PC-3
# [38] = tested on: RPMI-8226
# [39] = tested on: RXF 393
# [40] = tested on: SF-268
# [41] = tested on: SF-539
# [42] = tested on: SK-MEL-28
# [43] = tested on: SK-MEL-2
# [44] = tested on: SK-MEL-5
# [45] = tested on: SN12C
# [46] = tested on: SNB-19
# [47] = tested on: SNB-75
# [48] = tested on: SR
# [49] = tested on: SW-620
# [50] = tested on: T47D
# [51] = tested on: TK-10
# [52] = tested on: U-251
# [53] = tested on: UACC-257
# [54] = tested on: UACC-62
# [55] = tested on: UO-31
# [56] = tested on: HOP-62
# [57] = tested on: OVCAR-3
# [58] = tested on: SF-295
# [59] = tested on: SK-OV-3
smiles,measurement,setting,value
Cc1ccc(S(=O)(=O)NC(=O)C2=C(c3ccccc3)[N-]N(C)c3nc4cccc[n+]4nc32)cc1,GI50,[1],> 100 µM (inactive)
same,GI50,[2],> 100 µM (inactive)
same,GI50,[3],> 100 µM (inactive)
same,GI50,[4],> 100 µM (inactive)
same,GI50,[5],> 100 µM (inactive)
same,GI50,[6],> 100 µM (inactive)
same,GI50,[7],> 100 µM (inactive)
same,GI50,[8],23.1 µM (inactive)
same,GI50,[9],> 100 µM (inactive)
same,GI50,[10],29.1 µM (inactive)
same,GI50,[11],> 100 µM (inactive)
same,GI50,[12],> 100 µM (inactive)
same,GI50,[13],> 100 µM
same,GI50,[14],> 100 µM (inactive)
same,GI50,[15],12.6 µM (inactive)
same,GI50,[16],> 100 µM (inactive)
same,GI50,[17],> 100 µM (inactive)
same,GI50,[18],51.4 µM (inactive)
same,GI50,[19],> 100 µM (inactive)
same,GI50,[20],> 100 µM (inactive)
same,GI50,[21],96.4 µM (inactive)
same,GI50,[22],> 100 µM (inactive)
same,GI50,[23],49.9 µM (inactive)
same,GI50,[24],50.9 µM (inactive)
same,GI50,[25],> 100 µM (inactive)
same,GI50,[26],> 100 µM (inactive)
same,GI50,[27],99.5 µM (inactive)
same,GI50,[28],99.3 µM (inactive)
same,GI50,[29],> 100 µM (inactive)
same,GI50,[30],> 100 µM (inactive)
same,GI50,[31],> 100 µM (inactive)
same,GI50,[32],34.4 µM (inactive)
same,GI50,[33],> 100 µM (inactive)
same,GI50,[34],> 100 µM (inactive)
same,GI50,[35],> 100 µM (inactive)
same,GI50,[36],51.6 µM (inactive)
same,GI50,[37],> 100 µM (inactive)
same,GI50,[38],45.6 µM (inactive)
same,GI50,[39],> 100 µM (inactive)
same,GI50,[40],> 100 µM (inactive)
same,GI50,[41],> 100 µM (inactive)
same,GI50,[42],> 100 µM (inactive)
same,GI50,[43],> 100 µM (inactive)
same,GI50,[44],98.9 µM (inactive)
same,GI50,[45],> 100 µM (inactive)
same,GI50,[46],> 100 µM (inactive)
same,GI50,[47],57.4 µM (inactive)
same,GI50,[48],> 100 µM (inactive)
same,GI50,[49],49.2 µM (inactive)
same,GI50,[50],55.1 µM (inactive)
same,GI50,[51],> 100 µM (inactive)
same,GI50,[52],> 100 µM (inactive)
same,GI50,[53],66.4 µM (inactive)
same,GI50,[54],> 100 µM (inactive)
same,GI50,[55],> 100 µM (inactive)
NS(=O)(=O)c1ccc(NCc2cnc3ccccc3c2)cc1,GI50,[1],39.4 µM (inactive)
same,GI50,[2],> 100 µM (inactive)
same,GI50,[3],> 100 µM (inactive)
same,GI50,[4],> 100 µM (inactive)
same,GI50,[5],62.8 µM (inactive)
same,GI50,[6],> 100 µM (inactive)
same,GI50,[8],> 100 µM (inactive)
same,GI50,[9],> 100 µM (inactive)
same,GI50,[10],> 100 µM (inactive)
same,GI50,[11],> 100 µM (inactive)
same,GI50,[12],> 100 µM (inactive)
same,GI50,[13],> 100 µM
same,GI50,[14],0.412 µM (active)
same,GI50,[56],> 100 µM (inactive)
same,GI50,[15],49.8 µM (inactive)
same,GI50,[16],> 100 µM (inactive)
same,GI50,[17],51.8 µM (inactive)
same,GI50,[18],49.4 µM (inactive)
same,GI50,[19],> 100 µM (inactive)
same,GI50,[20],> 100 µM (inactive)
same,GI50,[22],> 100 µM (inactive)
same,GI50,[23],> 100 µM (inactive)
same,GI50,[24],> 100 µM (inactive)
same,GI50,[25],> 100 µM (inactive)
same,GI50,[26],> 100 µM (inactive)
same,GI50,[27],> 100 µM (inactive)
same,GI50,[28],> 100 µM (inactive)
same,GI50,[29],> 100 µM (inactive)
same,GI50,[30],60 µM (inactive)
same,GI50,[31],> 100 µM (inactive)
same,GI50,[32],28.1 µM (inactive)
same,GI50,[33],83.8 µM (inactive)
same,GI50,[57],> 100 µM (inactive)
same,GI50,[34],> 100 µM (inactive)
same,GI50,[35],> 100 µM (inactive)
same,GI50,[36],34.7 µM (inactive)
same,GI50,[37],> 100 µM (inactive)
same,GI50,[38],> 100 µM (inactive)
same,GI50,[39],> 100 µM (inactive)
same,GI50,[40],39.8 µM (inactive)
same,GI50,[58],> 100 µM (inactive)
same,GI50,[41],30.5 µM (inactive)
same,GI50,[42],> 100 µM (inactive)
same,GI50,[43],> 100 µM (inactive)
same,GI50,[44],> 100 µM (inactive)
same,GI50,[59],> 100 µM (inactive)
same,GI50,[45],> 100 µM (inactive)
same,GI50,[46],> 100 µM (inactive)
same,GI50,[47],> 100 µM (inactive)
same,GI50,[48],> 100 µM (inactive)
same,GI50,[49],> 100 µM (inactive)
same,GI50,[50],> 100 µM (inactive)
same,GI50,[51],> 100 µM (inactive)
same,GI50,[52],> 100 µM (inactive)
same,GI50,[53],> 100 µM (inactive)
same,GI50,[54],> 100 µM (inactive)
same,GI50,[55],> 100 µM (inactive)
COc1ccc(Nc2nc3ccccc3nc2C(=O)O)cc1OC,GI50,[1],73.6 µM (inactive)
same,GI50,[2],21.3 µM (inactive)
same,GI50,[3],> 100 µM (inactive)
same,GI50,[4],44.8 µM (inactive)
same,GI50,[5],52.7 µM (inactive)
same,GI50,[6],29.6 µM (inactive)
same,GI50,[7],47.3 µM (inactive)
same,GI50,[8],> 100 µM (inactive)
same,GI50,[9],> 100 µM (inactive)
same,GI50,[10],61.7 µM (inactive)
same,GI50,[11],71.6 µM (inactive)
same,GI50,[12],> 100 µM (inactive)
same,GI50,[13],50.7 µM
same,GI50,[14],88.1 µM (inactive)
same,GI50,[56],34.4 µM (inactive)
same,GI50,[15],27.5 µM (inactive)
same,GI50,[16],> 100 µM (inactive)
same,GI50,[17],> 100 µM (inactive)
same,GI50,[18],98.4 µM (inactive)
same,GI50,[19],> 100 µM (inactive)
same,GI50,[20],66.8 µM (inactive)
same,GI50,[21],99.8 µM (inactive)
same,GI50,[22],> 100 µM (inactive)
same,GI50,[23],40.3 µM (inactive)
same,GI50,[24],56.2 µM (inactive)
same,GI50,[25],> 100 µM (inactive)
same,GI50,[26],> 100 µM (inactive)
same,GI50,[27],65 µM (inactive)
same,GI50,[28],34 µM (inactive)
same,GI50,[29],57 µM (inactive)
same,GI50,[30],80.4 µM (inactive)
same,GI50,[31],45.8 µM (inactive)
same,GI50,[32],> 100 µM (inactive)
same,GI50,[33],35.2 µM (inactive)
same,GI50,[57],40.2 µM (inactive)
same,GI50,[35],> 100 µM (inactive)
same,GI50,[36],> 100 µM (inactive)
same,GI50,[37],> 100 µM (inactive)
same,GI50,[38],65.8 µM (inactive)
same,GI50,[39],74.1 µM (inactive)
same,GI50,[40],41 µM (inactive)
same,GI50,[58],33.2 µM (inactive)
same,GI50,[41],> 100 µM (inactive)
same,GI50,[42],50.2 µM (inactive)
same,GI50,[44],28.5 µM (inactive)
same,GI50,[59],64.4 µM (inactive)
same,GI50,[45],48.1 µM (inactive)
same,GI50,[46],73.1 µM (inactive)
same,GI50,[47],69.2 µM (inactive)
same,GI50,[48],> 100 µM (inactive)
same,GI50,[49],> 100 µM (inactive)
same,GI50,[50],33.8 µM (inactive)
same,GI50,[51],82.8 µM (inactive)
same,GI50,[52],> 100 µM (inactive)
same,GI50,[53],98.2 µM (inactive)
same,GI50,[54],60.8 µM (inactive)
same,GI50,[55],29.6 µM (inactive)

# — ChEMBL document CHEMBL1201862, “PubChem BioAssay data set” (2004)
